Like-named read-outs stand apart in the source and are kept apart here.

What is called CC50 is the concentration giving 50% cytotoxicity. A word on the EC50: it is the concentration needed to bring the measured effect to its halfway point.

Series [1] relates to 15 mm radial defect. Put plainly: In vivo study in rabbit radial defect model, radiographs. Particulars: Scaffold I coated intraoperatively plus autogenic bone marrow, three weeks post op. The protocol: An evaluation of two small molecule compounds, dexamethasone and 20S-hydroxycholesterol, was performed in the rabbit radial defect model. Scaffold I was coated with the compounds intraoperatively, combined with autogenic bone marrow, and implanted in a 15 mm radial defect. Radiographs were taken at 3 and 6 weeks post-operatively, after which the animals were sacrificed and explants analyzed by micro CT.

Series [2] has as its system L929. Put plainly: In vitro L929 cytotoxicity assay (CTG). Format: cell-based. Particulars: L929 cells; read-out: Cytotox (CTG) CC50. The source says: (§1) Samples from several classes of small molecule compounds including, corticosteroids, glucocorticoids, oxysterols, compounds that impact the HMG coA reductase pathway and compounds that upregulate intracellular cAMP were screened for osteoinductive potential with an alkaline phosphatase (ALP) assay in primary human mesenchymal stem cells (MSCs). Sample compounds were screened over a dose range in a multiwell plate format using DNA to normalize the ALP response as a function of cell number. These dose response curves allowed for the determination of an EC50 to measure relative potency of the osteogenic response between compounds. FIG. 1 is a representative dose response curve for two of the corticosteroid compounds tested, clobetasol propionate and dexamethasone. In addition to the functional analysis, certain identified compounds were run through an in vitro L929 cytotoxicity assay to determine a CC50.

Series [3] has as its system primary human mesenchymal stem cells (MSCs). Briefly: Osteoinductive (OI) alkaline phosphatase (ALP) assay, dose response, ALP normalised to DNA. Type of series: cell-based.
Description: as §1

Series [4] can be described thus: Excipient testing at variable pH levels: solubility. Format: physicochemical. The protocol:
The goal of these experiments was to increase the solubility of the compound such that increased doses could be added to material scaffolds. In a set of experiments, the solubility of clobetasol propionate and fluticasone propionate were evaluated at three distinct pH levels with a series of excipients. Phosphate buffered solutions were prepared at pH levels 3 (Low), and 7 (Medium), and a Tris buffered solution was prepared at pH level 9 (High). Solubility of the compound in the presence of a given excipient was measured at the individual pH levels as a fold increase over the solubility of the compound with no excipient present. Data regarding the solubility of clobetasol propionate in combination with the excipients is given below in Table 3. Data regarding the solubility of fluticasone propionate in combination with the excipients is given below in Table 4.

Series [5] relates to MSCs. Briefly: In vitro 3-D efficacy: ALP RNA expression in MSCs seeded on coated Scaffold I. Type of series: cell-based. Particulars: compound precoated on Scaffold I, MSCs cultured three days, versus basal conditions. The protocol: The osteoinductive potential of selected small molecule compounds were determined in vitro by seeding MSCs onto a three dimensional b-TCP polymer composite scaffold, Scaffold I, which had been coated with selected compounds prior to seeding. These cells were allowed to culture for a period of time after which they were assayed for alkaline phosphatase (ALP) RNA content, an early marker of osteogenic differentiation. FIG. 7 is a graphical illustration showing the amount of ALP RNA expression in the MSCs, expressed as a fold increase over basal conditions (standard culture conditions). In this example, dexamethasone (a control for the assay) was added to the culture media in solution whereas in all other cases the compounds were precoated on to Scaffold I followed by addition of the MSCs. The cells were then cultured for three days and assayed for their level of osteogenic response via ALP RNA expression.

The subject of series [6] is MSCs. Put plainly: Relative potency: ALP assay after short exposure times, then basal media to assay completion. Particulars: for EC50: MSCs, then basal media. Type of series: cell-based, human. As for the experimental part:
One part of this technology may involve coating an osteoconductive scaffold with an osteoinductive small molecule compound to thereby deliver the compound locally when the scaffold is implanted. Consequently, the optimal time and concentration profile required for the compound to remain at the site in order to influence an osteogenic outcome was determined. Initially, potency was determined by looking at exposure over 6 days. In order to better understand the optimal exposure profile, MSCs were treated over a series of dose ranges for exposure times starting at 1 hour out to 4 days, after which the compound treated media was removed and the cells were allowed to continue to assay completion under basal media conditions. This allowed for the determination of the relative potency of the compounds over short exposure periods and gave an indication of the release requirements that would be necessary to achieve the desired osteogenic outcome.
FIG. 2 is a representative relative potency graph of a corticosteroid, fluticasone propionate, based on the results shown in Table 2.

Where [7] appears, read: primary human MSCs, exposure over 6 days, read-out: OI Assay (ALP) EC50.

As for `CC(C)CCC[C@](C)(O)[C@H]1CC[C@H]2[C@@H]3CC=C4C[C@@H](O)CC[C@]4(C)[C@H]3CC[C@@]21C` [20a-hydroxy-cholesterol], in series [1], the “radiographs, periosteal response” value was “appeared to have an enhanced periosteal response”. The CC50 in series [2] was more than 12000 nM. Further, in series [3] (setting [7]), the EC50 is more than 12000 nM.
As for `CCC(=O)O[C@]1(C(=O)SCF)[C@H](C)C[C@H]2[C@@H]3C[C@H](F)C4=CC(=O)C=C[C@]4(C)[C@@]3(F)[C@@H](O)C[C@@]21C` [Fluticasone propionate], the “solubility, fold increase over no excipient” value was 55.01 fold in series [4] (excipient Captisol, pH 3 (Low), phosphate buffered); 80.81 fold in series [4] (excipient Captisol, pH 7 (Med), phosphate buffered); 67.60 fold in series [4] (excipient Captisol, pH 9 (High), Tris buffered); 94.00 fold in series [4] (excipient Cremophor_EL, pH 3 (Low), phosphate buffered); 138.82 fold in series [4] (excipient Cremophor_EL, pH 7 (Med), phosphate buffered); 89.92 fold in series [4] (excipient Cremophor_EL, pH 9 (High), Tris buffered). Moreover, the “solubility, fold increase over no excipient” value in series [4] (excipient DMA, pH 3 (Low), phosphate buffered) turned out to be 6.67 fold; in series [4] (excipient DMA, pH 7 (Med), phosphate buffered), 8.41 fold; in series [4] (excipient DMA, pH 9 (High), Tris buffered), 7.07 fold; in series [4] (excipient DMSO, pH 3 (Low), phosphate buffered), 1.79 fold; in series [4] (excipient DMSO, pH 7 (Med), phosphate buffered), 1.96 fold; in series [4] (excipient DMSO, pH 9 (High), Tris buffered), 1.84 fold. Moreover, the “solubility, fold increase over no excipient” value in series [4] (excipient Dimethyl_isosorbide, pH 3 (Low), phosphate buffered) is given as 4.14 fold; in series [4] (excipient Dimethyl_isosorbide, pH 7 (Med), phosphate buffered) it was 5.78 fold; in series [4] (excipient Dimethyl_isosorbide, pH 9 (High), Tris buffered) it was 5.01 fold; in series [4] (excipient Labrasol, pH 3 (Low), phosphate buffered), 54.03 fold; in series [4] (excipient Labrasol, pH 7 (Med), phosphate buffered), 85.96 fold; in series [4] (excipient Labrasol, pH 9 (High), Tris buffered), 79.23 fold. The “solubility, fold increase over no excipient” value in series [4] (excipient NMP, pH 3 (Low), phosphate buffered) is given as 6.39 fold; in series [4] (excipient NMP, pH 7 (Med), phosphate buffered), 9.02 fold; in series [4] (excipient NMP, pH 9 (High), Tris buffered), 7.96 fold; in series [4] (excipient PEG400, pH 3 (Low), phosphate buffered), 3.22 fold; in series [4] (excipient PEG400, pH 7 (Med), phosphate buffered) it was 4.32 fold; in series [4] (excipient PEG400, pH 9 (High), Tris buffered) it was 3.55 fold. Also, the “solubility, fold increase over no excipient” value in series [4] (excipient PVP, pH 3 (Low), phosphate buffered) is listed as 2.21 fold; in series [4] (excipient PVP, pH 7 (Med), phosphate buffered) it was 3.98 fold; in series [4] (excipient PVP, pH 9 (High), Tris buffered) it was 2.73 fold; in series [4] (excipient Propylene_glycol, pH 3 (Low), phosphate buffered), 5.63 fold; in series [4] (excipient Propylene_glycol, pH 7 (Med), phosphate buffered), 7.89 fold; in series [4] (excipient Propylene_glycol, pH 9 (High), Tris buffered), 5.90 fold. Besides, the “solubility, fold increase over no excipient” value in series [4] (excipient Solutol_HS_15, pH 3 (Low), phosphate buffered) was determined as 3.82 fold; in series [4] (excipient Solutol_HS_15, pH 7 (Med), phosphate buffered), 5.00 fold; in series [4] (excipient Solutol_HS_15, pH 9 (High), Tris buffered), 4.47 fold; in series [4] (excipient Tweens, pH 3 (Low), phosphate buffered), 194.37 fold; in series [4] (excipient Tweens, pH 7 (Med), phosphate buffered), 272.98 fold; in series [4] (excipient Tweens, pH 9 (High), Tris buffered), 231.06 fold. In addition, the “ALP RNA expression (osteogenic differentiation of MSCs)” value in series [5] was “upregulated osteogenic differentiation of MSCs significantly”. In addition, the CC50 in series [2] was more than 1000 nM. In addition, the EC50 in series [6] (1 hr exposure, read-out: EC50 1 hr.) is 0.194 nM; in series [6] (4 hr exposure, read-out: EC50 4 hr.) it was 0.0422 nM; in series [6] (24 hr exposure, read-out: EC50 24 hr.), 0.0676 nM; in series [6] (72 hr exposure, read-out: EC50 72 hr), 0.0042 nM; in series [3] (MSCs, 6 days exposure, read-out: EC50 6 days), 0.0065 nM; in series [3] (setting [7]), 0.0065 nM. For the same compound, in series [6] (time range to reach the full response of the ALP assay control (dexamethasone at 10 nM for 6 days)), the “Max Osteogenic Response” value lay within 48 to 72 h.
